{"source": "patent US7071231B2", "about": "“Naphthalene ureas as glucose uptake enhancers” (Telik, Inc., priority 1999, dated 2006)", "key": {"[1]": {"system": "STZ/HFD rat", "assay": "Blood glucose determination in the STZ/HFD rat model of Type 2 diabetes", "type": "in vivo", "conditions": "STZ/HFD rat model, oral compound administration (30 mg/kg)", "source_text": "Blood Glucose Determination in the STZ/HFD Rat Model of Type 2 Diabetes\nRepresentative compounds were also profiled in genetically normal rats given a high-fat diet followed by treatment with a low dose of streptozotocin (STZ/HFD). This treatment regimen recreates both the insulin resistance and the hyperglycemia seen in human Type 2 diabetes. Male CD rats (Jackson Labs, Bar Harbor Me.) were maintained according to NIH guidelines, housed two per cage, and fed either standard lab chow (Tekland Laboratory Diets, James Grain, San Jose, Calif.) or the same chow supplemented with chocolate bars, cookies, and potato chips such that their final diet contained 30% fat by weight (high-fat diet; HFD). After two weeks of this diet, the animals were given an injection of freshly-prepared streptozotocin (35 mg/kg, i.p.) and continued on the HFD. Animals that achieved glucose levels of 190 to 380 mg/dl were used in this study. At the end of the 12-hour light/dark cycle, and just prior to the experiment, the animals were moved to new cages with no food available until 4 hours after treatment. The compound or vehicle (PBS) was given p.o. by gavage, and blood was sampled by approved IACUC protocol using tail cap method. Glucose was determined using the Glucometer Elite (Bayer, Elkhart, Ind.).\nThe reduction was maximal (20%) 4 hours after the administration of Compound 15."}, "[2]": {"target": "T1, β-kinase domain of the human insulin receptor (CKD) (Homo sapiens, UniProt P06213)", "T1 construct": "The complete β-kinase domain of the human insulin receptor (CKD) was expressed in, and purified from, baculovirus; made in house", "T1 sequence (P06213 980-1382 limits assumed)": "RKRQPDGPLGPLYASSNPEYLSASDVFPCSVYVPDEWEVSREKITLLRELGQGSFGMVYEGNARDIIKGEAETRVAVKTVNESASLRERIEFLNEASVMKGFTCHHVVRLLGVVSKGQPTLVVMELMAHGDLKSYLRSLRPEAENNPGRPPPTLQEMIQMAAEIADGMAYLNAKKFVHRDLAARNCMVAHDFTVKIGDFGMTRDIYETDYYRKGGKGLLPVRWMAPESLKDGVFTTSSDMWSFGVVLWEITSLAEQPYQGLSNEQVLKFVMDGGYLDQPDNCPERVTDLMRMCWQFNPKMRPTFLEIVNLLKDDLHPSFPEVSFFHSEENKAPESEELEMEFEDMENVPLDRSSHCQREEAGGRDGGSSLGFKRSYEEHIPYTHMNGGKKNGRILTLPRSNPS", "assay": "32P-cytoplasmic kinase domain (CKD) autophosphorylation assay", "type": "biochemical", "conditions": "phosphorylation of CKD expressed as % of the vehicle level; 10 minutes at room temperature; compound concentration not given", "protocol": "^32P-cytoplasmic Kinase Domain (CKD) Autophosphorylation Assay The insulin signaling pathway is activated through stimulation of the insulin receptor. A major component of this activation is the phosphorylation of a specific portion of the receptor called the β-kinase domain. The complete β-kinase domain of the human insulin receptor (CKD) was expressed in, and purified from, baculovirus. CKD (4.0μg/ml), in a solution of 29 mM HEPES (pH 7.6), 0.05% Triton X-100, 10 mM MgCl2, 2 mM MnCl2 (50 μl final volume), was combined with 50 μM ATP, and 5 μCi ^32P-ATP (3000Ci/mmol.). A test compound, or the vehicle (dimethyl sulfoxide (DMSO)) was added to a final DMSO concentration of 1%. The mixture was incubated for 10 minutes at room temperature. The reaction was terminated by the addition of 10 μl 200 mM EDTA. A 30 μl volume was removed, mixed with 5 μl of 6× Laemmeli sodium dodecyl sulfate (SDS) treatment buffer, and heated to 94° C. for 5 minutes. A 20 μl aliquot was then run an SDS-PAGE gel. The radioactivity incorporated into the CKD band was quantified by phosphorimaging of the gel, or scintillation counting of the excised bands. The potency of a compound for increasing phosphorylation was expressed as % of the vehicle level."}, "[3]": {"system": "3T3 L1 fibroblasts", "assay": "Glucose transport activity assay (14C-2-deoxy-D-glucose uptake)", "type": "cell-based", "conditions": "for EC (150% of vehicle control): EC (effective concentration) for increase in glucose transport, 14C-2-deoxy-D-glucose, 3T3 L1 cells, read-out: Concentration (μM) to reach >150% activity of vehicle control", "summary_of_the_method": "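Differentiated 3T3 L1 adipocytes (IBMX/dexamethasone/insulin induction), serum-starved overnight, preincubated 30 min at 37 °C with compound ± insulin in pH 7.4 salt buffer, then 30 min with 5 μCi/ml 14C-2-deoxy-D-glucose. Lysate radioactivity counted; EC = concentration raising uptake above 150% of vehicle control.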"}, "[4]": {"target": "T2, human insulin receptor (Homo sapiens, UniProt P06213)", "T2 construct": "expressed in transfected cells; host or cells: NIH 3T3 (3T3HIR)", "T2 sequence (P06213 763-1382 limits assumed)": "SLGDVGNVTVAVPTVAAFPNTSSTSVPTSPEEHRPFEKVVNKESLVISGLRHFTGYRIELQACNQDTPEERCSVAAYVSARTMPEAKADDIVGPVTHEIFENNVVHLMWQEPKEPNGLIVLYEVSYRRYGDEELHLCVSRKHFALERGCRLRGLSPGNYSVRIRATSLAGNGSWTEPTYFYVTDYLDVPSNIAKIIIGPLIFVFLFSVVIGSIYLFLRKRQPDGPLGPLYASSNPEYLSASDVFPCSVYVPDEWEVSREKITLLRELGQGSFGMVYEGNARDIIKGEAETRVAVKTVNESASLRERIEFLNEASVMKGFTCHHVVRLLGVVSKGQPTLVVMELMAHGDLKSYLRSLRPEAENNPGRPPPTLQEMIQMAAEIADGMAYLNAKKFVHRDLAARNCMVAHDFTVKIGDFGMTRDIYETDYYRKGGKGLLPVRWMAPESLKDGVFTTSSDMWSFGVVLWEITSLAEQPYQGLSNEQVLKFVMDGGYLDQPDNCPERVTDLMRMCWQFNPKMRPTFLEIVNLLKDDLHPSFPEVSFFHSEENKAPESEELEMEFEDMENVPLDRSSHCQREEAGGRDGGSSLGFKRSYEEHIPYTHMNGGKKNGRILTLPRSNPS", "T2 sequence (P06213 28-758 partner limits assumed)": "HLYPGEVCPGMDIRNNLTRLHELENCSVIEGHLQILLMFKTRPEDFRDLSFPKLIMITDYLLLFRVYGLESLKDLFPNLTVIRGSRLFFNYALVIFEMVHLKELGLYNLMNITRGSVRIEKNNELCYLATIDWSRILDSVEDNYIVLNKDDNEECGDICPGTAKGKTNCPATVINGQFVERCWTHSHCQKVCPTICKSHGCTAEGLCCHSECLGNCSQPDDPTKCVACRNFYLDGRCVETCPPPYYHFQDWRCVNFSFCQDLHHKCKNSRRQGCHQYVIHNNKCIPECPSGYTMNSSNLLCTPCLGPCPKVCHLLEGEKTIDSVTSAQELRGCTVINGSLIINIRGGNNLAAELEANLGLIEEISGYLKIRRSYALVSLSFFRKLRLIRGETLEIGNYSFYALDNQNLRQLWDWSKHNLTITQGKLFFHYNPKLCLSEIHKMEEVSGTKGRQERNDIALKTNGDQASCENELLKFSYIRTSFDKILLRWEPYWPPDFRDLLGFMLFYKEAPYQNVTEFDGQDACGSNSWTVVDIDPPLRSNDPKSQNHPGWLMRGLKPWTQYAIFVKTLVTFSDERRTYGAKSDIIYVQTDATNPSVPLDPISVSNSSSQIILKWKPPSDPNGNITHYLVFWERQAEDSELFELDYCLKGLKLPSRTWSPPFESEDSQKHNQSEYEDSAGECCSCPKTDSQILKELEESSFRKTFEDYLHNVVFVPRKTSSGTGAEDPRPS", "assay": "Whole-cell phosphorylation assay (3T3HIR cells)", "type": "cell-based", "conditions": "15 min, anti-phosphotyrosine Western, various concentrations (FIG. 2)", "protocol": "Whole-cell Phosphorylation Assay:\nThe initial step in insulin signaling is phosphorylation of the insulin receptor in response to insulin binding. NIH 3T3 cells overexpressing human insulin receptor (3T3HIR) were grown for 2 days at a density of 2×10^5/ml cells in 6 well culture dishes in DMEM with 10% FBS and L-glutamine. Prior to the experiment the cells were serum-starved overnight with DMEM with 0.1% BSA. The following morning, the cells were washed with PBS and the medium was replaced with 150 mM NaCl, 1.7 mM KCl, 0.9 mM CaCl2, K2HPO4 (pH 7.4), to which were added either the experimental compounds, or their vehicle (DMSO). Insulin or its vehicle (0.01% BSA) was diluted in the assay buffer (containing test compound or vehicle, respectively) to a final concentration of 2.5 nM. After incubating for 15 min, the cells were washed with cold PBS twice and lysed in 50 mM Tris.HCl, pH 7.4 150 mM NaCl, 0.25% sodium deoxycholate, 1% NP-40, 1 mM EGTA, 1 mM PMSF, 1 mM Na3VO4, 1 mM NaF, 1 ug/ml each of Aprotinin, Leupeptin and Pepstatin. The cell lysates were clarified by centrifugation at 12000 rpm, and the supernatants were estimated for protein concentration. Total cell lysate ([…]) was boiled with 2× SDS-PAGE sample buffer for 3 min and loaded into 7.5% SDS-PAGE along with Amersham rainbow marker protein as a molecular weight standard. […]"}, "[5]": {"system": "3T3 L1 adipocytes", "assay": "Effect of Wortmannin and Cytochalasin on glucose uptake", "type": "cell-based", "conditions": "Cytochalasin B 10 μM; stimulation by Compound 15 alone or Compound 15 plus 5.6 nM insulin", "protocol": "Effect of Wortmannin and Cytochalasin on Glucose Uptake:\nThe glucose transport pathway stimulated by insulin involves activation of PI3 Kinase. Wortmannin is a selective inhibitor of PI3 Kinase and inhibits insulin-stimulated glucose transport. 3T3 L1 adipocytes were pretreated with 100 nM Wortmannin and stimulated with the compounds in the presence or absence of insulin. […] Insulin-stimulated glucose transport is mediated by glucose transporter proteins. Cytochalasin B is an inhibitor of glucose transporters and inhibits insulin-stimulated glucose uptake."}}, "note": "Where a name gives a salt, the structure may show the parent alone. Read-outs that look alike come from different tables or passages of the source."}
{"smiles": "O=C(Nc1ccc2ccc(S(=O)(=O)Nc3cccc(S(=O)(=O)O)c3)cc2c1)Nc1ccc2ccc(S(=O)(=O)Nc3cccc(S(=O)(=O)O)c3)cc2c1", "note": "[Compound 13, 3-{[(7-{[N-(7-{[(3-sulfophenyl)amino]sulfonyl}-2-naphthyl)carbamoyl]amino}-2-naphthyl)sulfonyl]amino}benzenesulfonic acid disodium salt]", "values": [{"measurement": "% Reduction in Blood Glucose (maximal reduction)", "setting": "[1]", "value": 20, "unit": "%"}, {"measurement": "Time (h) at which maximal reduction in blood glucose occurred", "setting": "[1]", "value": 1, "unit": "h"}, {"measurement": "% Activity vs. Control", "setting": "[2]", "value": 135, "unit": "%"}, {"measurement": "glucose uptake of cells", "setting": "[3]; in the presence or absence of insulin (FIG. 3)", "value": "increase in glucose uptake of cells"}, {"measurement": "autophosphorylation of the insulin receptor in whole cells", "setting": "[4]", "value": "increase of autophosphorylation"}]}
{"smiles": "O=C(Nc1ccc2c(O)cc(S(=O)(=O)Nc3ccc(C(=O)O)cc3)cc2c1)Nc1ccc2c(O)cc(S(=O)(=O)Nc3ccc(C(=O)O)cc3)cc2c1", "note": "[Compound 29, 4-{[(7-{[N-(7-{[(4-carboxyphenyl)amino]sulfonyl}-5-hydroxy(2-naphthyl))carbamoyl]amino}-4-hydroxy-2-naphthyl)sulfonyl]amino}benzoic acid]", "values": [{"measurement": "% Reduction in Blood Glucose (maximal reduction)", "setting": "[1]", "value": 18, "unit": "%"}, {"measurement": "Time (h) at which maximal reduction in blood glucose occurred", "setting": "[1]", "value": 6, "unit": "h"}, {"measurement": "% Activity vs. Control", "setting": "[2]", "value": 106, "unit": "%"}, {"measurement": "EC (150% of vehicle control)", "setting": "[3]; Mus musculus", "value": 3.2, "unit": "µM"}]}
{"smiles": "COC(=O)c1cccc(NS(=O)(=O)c2cc(O)c3ccc(NC(=O)Nc4ccc5c(O)cc(S(=O)(=O)Nc6cccc(C(=O)OC)c6)cc5c4)cc3c2)c1", "note": "[Compound 41, methyl 3-({[4-hydroxy-7-({[5-hydroxy-7-({[3-(methoxycarbonyl)phenyl]amino}sulfonyl)(2-naphthyl)]amino}carbonylamino)-2-naphthyl]sulfonyl}amino)benzoate]", "values": [{"measurement": "% Reduction in Blood Glucose (maximal reduction)", "setting": "[1]", "value": 20, "unit": "%"}, {"measurement": "Time (h) at which maximal reduction in blood glucose occurred", "setting": "[1]", "value": 4, "unit": "h"}, {"measurement": "% Activity vs. Control", "setting": "[2]", "value": 109, "unit": "%"}, {"measurement": "EC (150% of vehicle control)", "setting": "[3]; Mus musculus", "value": 32, "unit": "µM"}]}
{"smiles": "O=C(Nc1ccc2c(O)cc(S(=O)(=O)Nc3cccc(C(=O)O)c3)cc2c1)Nc1ccc2c(O)cc(S(=O)(=O)Nc3cccc(C(=O)O)c3)cc2c1", "note": "[Compound 42, 3-{[(7-{[N-(7-{[(3-carboxyphenyl)amino]sulfonyl}-5-hydroxy(2-naphthyl))carbamoyl]amino}-4-hydroxy-2-naphthyl)sulfonyl]amino}benzoic acid]", "values": [{"measurement": "% Activity vs. Control", "setting": "[2]", "value": 124, "unit": "%"}, {"measurement": "EC (150% of vehicle control)", "setting": "[3]; Mus musculus", "value": 3.2, "unit": "µM"}]}
{"smiles": "O=C(Nc1ccc2ccc(S(=O)(=O)Nc3ccc(Cl)c(C(=O)O)c3)cc2c1)Nc1ccc2ccc(S(=O)(=O)Nc3ccc(Cl)c(C(=O)O)c3)cc2c1", "note": "[Compound 48, 5-{[(7-{[N-(7-{[(3-carboxy-4-chlorophenyl)amino]sulfonyl}(2-naphthyl))carbamoyl]amino}(2-naphthyl))sulfonyl]amino}-2-chlorobenzoic acid]", "values": [{"measurement": "% Reduction in Blood Glucose (maximal reduction)", "setting": "[1]", "value": 24, "unit": "%"}, {"measurement": "Time (h) at which maximal reduction in blood glucose occurred", "setting": "[1]", "value": 2, "unit": "h"}, {"measurement": "EC (150% of vehicle control)", "setting": "[3]; Mus musculus", "value": 3.2, "unit": "µM"}]}
{"smiles": "O=C(Nc1ccc2ccc(S(=O)(=O)Nc3cccnc3)cc2c1)Nc1ccc2ccc(S(=O)(=O)Nc3cccnc3)cc2c1", "note": "[Compound 77, N-{7-[(3-pyridylamino)sulfonyl](2-naphthyl)}({7-[(3-pyridylamino)sulfonyl](2-naphthyl)}amino)carboxamide]", "values": [{"measurement": "% Activity vs. Control", "setting": "[2]", "value": 171, "unit": "%"}, {"measurement": "EC (150% of vehicle control)", "setting": "[3]; Mus musculus", "value": 3.2, "unit": "µM"}]}
{"smiles": "NS(=O)(=O)c1ccc2ccc(NC(=O)Nc3ccc4ccc(S(N)(=O)=O)cc4c3)cc2c1", "note": "[Compound 89, N-(7-sulfamoyl(2-naphthyl))[(7-sulfamoyl(2-naphthyl))amino]carboxamide]", "values": [{"measurement": "% Activity vs. Control", "setting": "[2]", "value": 104, "unit": "%"}, {"measurement": "EC (150% of vehicle control)", "setting": "[3]; Mus musculus", "value": 3.2, "unit": "µM"}]}
{"smiles": "O=C(Nc1ccc2c(O)cc(S(=O)(=O)Nc3ccc(Cl)c(S(=O)(=O)O)c3)cc2c1)Nc1ccc2c(O)cc(S(=O)(=O)Nc3ccc(Cl)c(S(=O)(=O)O)c3)cc2c1", "note": "[Compound 93, 2-chloro-5-{[(7-{[(7-{[(4-chloro-3-sulfophenyl)amino]sulfonyl}-5-hydroxy(2-naphthyl))amino]carbonylamino}-4-hydroxy(2-naphthyl))sulfonyl]amino}benzenesulfonic acid]", "values": [{"measurement": "% Reduction in Blood Glucose (maximal reduction)", "setting": "[1]", "value": 25, "unit": "%"}, {"measurement": "Time (h) at which maximal reduction in blood glucose occurred", "setting": "[1]", "value": 4, "unit": "h"}, {"measurement": "EC (150% of vehicle control)", "setting": "[3]; Mus musculus", "value": 3.2, "unit": "µM"}]}
{"smiles": "CCOC(=O)COc1cc(S(=O)(=O)O)cc2cc(NC(=O)Nc3ccc4c(O)cc(S(=O)(=O)O)cc4c3)ccc12.N.N", "note": "[Compound 94, 7-[({5-[(ethoxycarbonyl)methoxy]-7-sulfo(2-naphthyl)}amino)carbonylamino]-4-hydroxy-naphthalene-2-sulfonic acid, diammonium salt]", "values": [{"measurement": "% Activity vs. Control", "setting": "[2]", "value": 279, "unit": "%"}, {"measurement": "EC (150% of vehicle control)", "setting": "[3]", "value": 32, "unit": "µM"}]}
{"smiles": "COc1cc(S(=O)(=O)O)cc2cc(NC(=O)Nc3ccc4c(O)cc(S(=O)(=O)O)cc4c3)ccc12", "note": "[Compound 98, 4-hydroxy-7-{[(5-methoxy-7-sulfo(2-naphthyl))amino]carbonylamino}naphthalene-2-sulfonic acid]", "values": [{"measurement": "% Activity vs. Control", "setting": "[2]", "value": 166, "unit": "%"}, {"measurement": "EC (150% of vehicle control)", "setting": "[3]; Mus musculus", "value": 32, "unit": "µM"}]}
{"smiles": "COc1cc(S(=O)(=O)O)cc2cc(NC(=O)Nc3ccc4c(OC)cc(S(=O)(=O)O)cc4c3)ccc12", "note": "[Compound 99, 4-methoxy-7-{[(5-methoxy-7-sulfo(2-naphthyl))amino]carbonylamino}naphthalene-2-sulfonic acid]", "values": [{"measurement": "% Activity vs. Control", "setting": "[2]", "value": 110, "unit": "%"}, {"measurement": "EC (150% of vehicle control)", "setting": "[3]; Mus musculus", "value": 32, "unit": "µM"}]}
{"smiles": "C=C1[C@@H](C)[C@H]2[C@H](Cc3ccccc3)NC(=O)[C@]23OC(=O)/C=C/[C@H](O)CCC[C@@H](C)C/C=C/[C@H]3[C@@H]1O", "note": "[Cytochalasin B]", "values": [{"measurement": "effect on stimulation of glucose transport", "setting": "[5]", "value": "inhibited the stimulation of glucose transport"}]}
